Source: patent US8835474B2, “Remedy for overactive bladder comprising acetic acid anilide derivative as the active ingredient” (Astellas Pharma Inc., priority 2002, dated 2014)

What was measured:
[1] = test system: isolated rat bladder smooth muscle; experiment: Isolated rat bladder smooth muscle relaxation test, antagonism test to contraction by carbachol; type: cell-based; details: for EC50: Rattus norvegicus; for EC50 / Maximum Relaxation Rate: contraction by 10^−6 M carbachol, relaxation by 10^−4 M papaverine defined as 100%; for Comparison of Action Strength: compared in the concentration giving a relaxation rate of 15.7%, CGP-12,177A = 1; for Concentration where the compound showed a relaxation rate of 15.7%: maximum relaxation rate of CGP-12,177A
Method: (§1) The test was conducted by referring to The Journal of Urology, 1999, volume 161, page 680.
(§2) Male rats of Wistar strain of 10 to 11 weeks age were sacrificed by depletion, whole bladder was isolated by laparotomy and bladder sections each being in a size of about 3×10 mm were prepared in a nutrient solution which was well oxygenated with 95% O2 and 5% CO2 (Krebs-Henseleit solution (118.4 mM NaCl, 4.7 mM KCl, 1.2 mM KH2PO4; 1.2 mM MgSO4, 2.5 mM CaCl2, 25.0 mM NaHCO3 and 11.1 mM glucose)). The section was hung in a Magnus tube in which a nutrient solution (Krebs-Henseleit solution) of 37° C. into which 95% O2 and 5% CO2 were aerated, stabilized for 30 to 60 minutes with a load of 1 g and 10^−6 M carbachol (CCh) or 40 mM potassium chloride (KCl) was repeatedly applied thereto whereupon it was confirmed that reactivity to CCh or KCl became almost constant. After contraction by 10^−6 M CCh or 40 mM KCl was induced and the generated tension was stabilized, a test drug (compound A or CGP-12, 177A) was cumulatively administered in 10-fold ratio with intervals of about 10 minutes and the relaxation reaction was observed. After completion of observation of relaxation reaction at maximum concentration of the test drug, 10^−4 M papaverine was added to induce the maximum relaxation and a relaxation rate was calculated where the relaxation reaction was defined as 100%.

[2] = test system: isolated rat bladder smooth muscle; experiment: Isolated rat bladder smooth muscle relaxation test, antagonism test to contraction by potassium chloride; type: cell-based; details: for EC50: Rattus norvegicus; for EC50 / Maximum Relaxation Rate: contraction by 40 mM potassium chloride, relaxation by 10^−4 M papaverine defined as 100%; for Comparison of Action Strength: compared in the concentration giving a relaxation rate of 17.4%, CGP-12,177A = 1; for Concentration where the compound showed a relaxation rate of 17.4%: maximum relaxation rate of CGP-12,177A
Method: as §1, §2

[3] = test system: cyclophosphamide-induced overactive bladder model rat; experiment: Measurement of urination function of overactive bladder model rat induced by cyclophosphamide; type: in vivo; details: 1 mg/kg i.v.; 30 minutes after administration versus 30 minutes before
Method: Overactive bladder model rats induced by cyclophosphamide were prepared by referring to British Journal of Pharmacology, 2000, volume 130, page 331 and the following test was conducted. Female rats (220 to 230 g) of Wistar strain were used for the test. Under anesthetization with pentobarbital sodium, a catheter for infusion of physiological saline solution and for measurement of pressure in bladder was inserted into bladder from the top of the bladder and fixed while a catheter for administration of a drug was inserted into carotid vein and fixed. Cyclophosphamide (CYP) was administered into abdominal cavity and, after being recovered, the rats were returned to a feeding cage. On the next day of the operation, one end of the catheter inserted into bladder of the rat was connected to a syringe pump via a three-way cock and a physiological saline solution was continuously infused whereby |micturition| reflex was induced. Another end was connected to a pressure transducer and pressure in the bladder was measured. After the micturition reflex was stabilized, 1 mg/kg of the compound A was administered from a catheter for administration of drug which was inserted into carotid vein. Parameter for the evaluation was an average interval for urination from administration of the drug until 30 minutes thereafter. […]

[4] = test system: rhythmic bladder contraction; experiment: Rat rhythmic bladder contraction measurement test; type: in vivo
Method: The test was conducted by referring to European Journal of Pharmacology, 2000, volume 407, page 175. Female rats (225 to 290 g) of Wistar strain was used for the test. Under anesthetization with urethane, right and left ureters were ligated and cut and, after that, a polyethylene cannula was inserted from external urinary meatus and fixed. One end of the fixed cannula was connected to a pressure transducer via a three-way cock and pressure in the bladder was measured. Another end thereof was connected to a syringe pump and a physiological saline solution was continuously infused at a constant rate into bladder whereupon rhythmic bladder contraction was induced. The continuous infusion of a physiological saline solution was stopped after a rhythmic bladder contraction was noted. After the rhythmic bladder contraction was stabilized, drug or vehicle was administered from a catheter for administration of drug inserted into femoral vein. The compound A was intravenously administered in increased doses where the ratio was 3 (0.03, 0.1, 0.3, 1 and 3 mg/kg). A group to which vehicle was administered was used as a control group. Parameters for evaluation were number of times and contraction pressure of bladder contraction during 10 minutes from 5 to 15 minutes after the administration of the drug and each group was conducted in n=5. The result is shown in terms of mean value±standard error and Student t-test was conducted for comparison between the two groups.

[5] = contraction by potassium chloride

| EC50 [1] | EC50 [2] | Structure (SMILES) | Maximum Relaxation Rate [1] | Comparison of Action Strength ([1]; contraction by carbachol) | Concentration where the compound showed a relaxation rate of 15.7% ([1]; contraction by carbachol) | Maximum Relaxation Rate [2] | Comparison of Action Strength [2, 5] | Concentration where the compound showed a relaxation rate of 17.4% [2, 5] | elongation of micturition interval [3] | action of decreasing the contraction frequency versus control group ([4]; 3 mg/kg i.v., Student t-test, p<0.05) | contraction frequency of rhythmic bladder contraction ([4]; i.v. 0.03, 0.1, 0.3, 1 and 3 mg/kg, 5 to 15 minutes after administration, anesthetized female Wistar rats) | contraction pressure of rhythmic bladder contraction ([4]; until intravenous administration of 3 mg/kg) | relaxation action ([1]; antagonism test to contraction by carbachol) | action strength as compared with CGP-12,177A ([1]; contraction by carbachol) | relaxation action ([2]; antagonism test to contraction by potassium chloride) | action strength as compared with CGP-12,177A [2, 5] |
| --- | --- | --- | --- | --- | --- | --- | --- | --- | --- | --- | --- | --- | --- | --- | --- | --- |
| > 100 µM | > 100 µM | CC(C)(C)NC[C@H](O)COc1cccc2[nH]c(=O)[nH]c12 [CGP-12, 177A, reference compound] | 15.7% | 1 | 10^−4 M | 17.4% | 1 | 10^−4 M |  |  |  |  |  |  |  |  |
| 5.2 µM | 11 µM | Nc1nc(CC(=O)Nc2ccc(CCNC[C@H](O)c3ccccc3)cc2)cs1 [Compound A, (R)-2-(2-aminothiazol-4-yl)-4′-[2-[(2-hydroxy-2-phenylethyl)amino]-ethyl]acetic acid anilide] | 94.0% | 270 | 3.7e-07 M | 69.1% | 383 | 2.6e-07 M | 17.3% | significant | decreased on a dose-dependent manner | did not affect | strong relaxation action | 270 fold | strong relaxation action | 383 fold |
